Assay results reported in patent US7947854B2, “Bis-cationic compounds and use thereof” (The University of Sydney, priority 2003, dated 2011).
Marks after values point to notes of the source that are not given here.

What was measured:
Type in all cases: biochemical, Cryptococcus neoformans H99
Conditions in all cases: modifier 10 mM (Triton X-100 0.1% w/v)
[1] = tested on: membrane-associated phospholipase B (LPL/LPTA activities); experiment: Radiometric assay, membrane-associated LPL/LPTA activities
Description: (§1) Fungal isolates and media. […] Isolate H99 was kindly supplied by Dr. Gary Cox (Duke University Medical Center, Durham, N.C., USA), and subcultured onto Sabouraud dextrose agar (SDA) at 30° C.
(§2) Cellular disruption to prepare membrane and cytosolic fractions. The cell pellet from the preparation of the supernatant, above, was also frozen at −70° C. After washing twice with imidazole buffer, it was disrupted in the presence of a protease inhibitor cocktail (P 8215 for fungal and yeast cells; 4-(2-aminoethyl)benzenesulfonyl fluoride hydrochloride, 100 mM, 1,10-phenanthroline, 500 mM, pepstatin A, 2.2 mM, E-64, 1.4 mM; Sigma) in a MiniBeadbeater-8 Cell Disrupter (MBB-8; Daintree Scientific, Tasmania, Australia) for three cycles of 1 min, alternating with a 1 min cooling period on ice. The homogenate was centrifuged at 14,000 g for 15 min to obtain the membrane (pellet) and the cytosolic (supernatant) fractions.
(§3) Secreted LPL and LPTA activities were measured simultaneously in a reaction mixture containing 1-[^14C]palmitoyl lyso-PC (25,000 dpm) and carrier lyso-PC (final concentration 200 μM) in assay buffer. The reaction time was […] with 1 μg of total protein and LPL activity was measured by the rate of loss of 1-[^14C]palmitoyl lyso-PC with release of radiolabelled fatty acids. LPTA activity was estimated from the rate of formation of radiolabelled PC.
(§4) All reactions were terminated by adding 0.5 mL of chloroform:methanol (2:1 v/v). The reaction products were extracted by the method as disclosed in Bligh, E. C. and W. J. Dyer. 1959 ‘A rapid method of total lipid extraction and purification.’ Can. J. Biochem. Physiol. 37:911-917, separated by TLC and quantified as previously described. In the case of PLC activity, the TLC plates were developed in petroleum ether (BP 60-80° C.): diethyl ether: acetic acid (90:15:1, v/v/v) instead of chloroform:methanol:water (65:25:4, v/v/v).
(§5) All experiments were carried out in duplicate or triplicate. The effects of pH on the various phospholipase activities were measured using 50 mM final concentration of imidazole-acetate buffer (pH range 3-5), MES buffer (pH range 6-8) and glycine buffer (pH 9-10). Controls for non-enzymic breakdown of substrates were included at all pH values. Cations, Triton X-100 and metal chelators were made up as stock solutions in water and diluted to the final concentration in the appropriate assay buffer.
(§6) Preparation of inhibitors and use in assays. The following compounds were tested (for structures, see FIG. 2): compound 1, 1,12-bis(tributylphosphonium)dodecane dibromide (Fluka AG, Buchs, Switzerland); compound 2, 1,10-bis(tributylammonium)-decane dibromide; compound 3, 1,12-bis(tributylammonium)do-decane dibromide (both synthesised in-house); compound 4, 1,10-bis(trimethylammonium)decane dibromide [“decamethonium”] (Sigma, St. Louis Mo., USA). All compounds were prepared as stock solutions of 700 μM in assay buffer containing 5 mM EDTA, which was then diluted serially with buffer to obtain solutions of 70, 7, 0.7 and 0.07 μM. In each assay, 45 μL of these solutions was used, and the final volume of 125 μL was made up of substrate, enzyme and buffer. The radiometric assay was carried out as above. Inhibition was calculated as the percent of substrates (DPPC or Lyso-PC) remaining in the case of PLB and LPL activities, or of DPPC produced, in the case of the LPTA activity. The amounts converted, or produced, in the inhibitor-free control were normalised to 100%, and the inhibition calculated against it. All assays were done in triplicate.
(§7) Under these conditions only PLB, LPL and LPTA activities (both secreted and cell-associated) were measured. Initially, compounds deemed to be potential inhibitors were assayed at 25 and 250 μM.

[2] = tested on: cytosolic phospholipase B (LPL/LPTA activities); experiment: Radiometric assay, cytosolic LPL/LPTA activities
Description: as §1, §2, §3, §4, §5, §6, §7

[3] = tested on: cytosolic phospholipase B (PLB activity); experiment: Radiometric assay, cytosolic PLB activity
Description: as §1, §2
(§8) Radiometric assay method for phospholipases. Enzyme activities were measured as described previously in a final volume of 125 μL at 37° C. For the determination of secreted PLB activity, carrier dipalmitoyl phosphatidylcholine (DPPC, final concentration 800 μM) and 1,2-di[1-^14C] palmitoyl phosphatidylcholine (20,000 dpm) were dried under nitrogen and suspended in 125 mM imidazole acetate buffer (assay buffer, pH 4.0) by sonication using a Branson 450 sonifier. The reaction time was 22 min, using 1 μg total protein and PLB activity was determined by the rate of decrease of the radiolabelled PC substrate, with appearance of the label in free fatty acid. This assay also simultaneously allows for the determination of phospholipase A, C and D activities. These activities were measured by the appearance of radiolabel from PC in Lyso PC, diacylglycerol and phosphatidic acid, respectively.
as §4, §5
(§9) Preparation of inhibitors and use in assays. The following compounds were tested (for structures, see FIG. 2): compound 1, 1,12-bis(tributylphosphonium)dodecane dibromide (Fluka AG, Buchs, Switzerland); compound 2, 1,10-bis(tributylammonium)-decane dibromide; compound 3, 1,12-bis(tributylammonium)do-decane dibromide (both synthesised in-house); compound 4, 1,10-bis(trimethylammonium)decane dibromide [“decamethonium”] (Sigma, St. Louis Mo., USA). All compounds were prepared as stock solutions of 700 μM in assay buffer containing 5 mM EDTA, which was then diluted serially with buffer to obtain solutions of 70, 7, 0.7 and 0.07 μM. In each assay, 45 μL of these solutions was used, and the final volume of 125 μL was made up of substrate, enzyme and buffer. The radiometric assay was carried out as above.

[4] = tested on: membrane-associated phospholipase B (PLB activity); experiment: Radiometric assay, membrane-associated PLB activity
Description: as §1, §2, §8, §4, §5, §9

Question: Which results are given for [Ca+2] [Calcium]?
Answer: Membrane-associated LPL activity, percentage of the control ([1]; pH 4.0): 100%; Membrane-associated LPTA activity, percentage of the control ([1]; pH 4.0): 96%; Membrane-associated LPL activity, percentage of the control ([1]; pH 7.0): 166* %; Membrane-associated LPTA activity, percentage of the control ([1]; pH 7.0): 140* %; Cytosolic LPL activity, percentage of the control ([2]; pH 4.0): 100%; Cytosolic LPTA activity, percentage of the control ([2]; pH 4.0): 100%; Cytosolic LPL activity, percentage of the control ([2]; pH 7.0): 236%; Cytosolic LPTA activity, percentage of the control ([2]; pH 7.0): 206%; Cytosolic PLB activity, percentage of the control ([3]; pH 4.0): 100%; Cytosolic PLB activity, percentage of the control ([3]; pH 7.0): 591* %; Membrane-associated PLB activity, percentage of the control ([4]; pH 4.0): 83%; Membrane-associated PLB activity, percentage of the control ([4]; pH 7.0): 533* %

Question: Which results are given for O=C(O)CN(CCN(CC(=O)O)CC(=O)O)CC(=O)O [EDTA, ethylenediaminetetraacetic acid]?
Answer: Membrane-associated LPL activity, percentage of the control ([1]; pH 4.0): 98%; Membrane-associated LPTA activity, percentage of the control ([1]; pH 4.0): 94%; Membrane-associated LPL activity, percentage of the control ([1]; pH 7.0): 96%; Membrane-associated LPTA activity, percentage of the control ([1]; pH 7.0): 100%; Cytosolic LPL activity, percentage of the control ([2]; pH 4.0): 100%; Cytosolic LPTA activity, percentage of the control ([2]; pH 4.0): 100%; Cytosolic LPL activity, percentage of the control ([2]; pH 7.0): 30%; Cytosolic LPTA activity, percentage of the control ([2]; pH 7.0): 32%; Cytosolic PLB activity, percentage of the control ([3]; pH 4.0): 100%; Cytosolic PLB activity, percentage of the control ([3]; pH 7.0): 100%; Membrane-associated PLB activity, percentage of the control ([4]; pH 4.0): 87%; Membrane-associated PLB activity, percentage of the control ([4]; pH 7.0): 67%

Question: Which “Membrane-associated LPL activity, percentage of the control” value ([1]; pH 4.0) does the source give for O=C(O)CN(CCOCCOCCN(CC(=O)O)CC(=O)O)CC(=O)O [EGTA, ethyleneglycoldiamine tetraacetic acid] here?
Answer: 100%

Question: And the “Membrane-associated LPTA activity, percentage of the control” value ([1]; pH 4.0)?
Answer: 90%

Question: What about the “Membrane-associated LPL activity, percentage of the control” value ([1]; pH 7.0) of the same compound?
Answer: 100%

Question: What about the “Membrane-associated LPTA activity, percentage of the control” value ([1]; pH 7.0) of the same compound?
Answer: 100%

Question: And the “Cytosolic LPL activity, percentage of the control” value (shortened to “Cytosolic LPL activity, percentage”) ([2]; pH 4.0)?
Answer: 86%

Question: What about the “Cytosolic LPTA activity, percentage of the control” value (from here on “Cytosolic LPTA activity, percentage”) ([2]; pH 4.0) of the same compound?
Answer: 88%

Question: What about the “Cytosolic LPL activity, percentage” value ([2]; pH 7.0) of the same compound?
Answer: 26%

Question: And the “Cytosolic LPTA activity, percentage” value ([2]; pH 7.0)?
Answer: 29%

Question: And the “Cytosolic PLB activity, percentage of the control” value (from here on “Cytosolic PLB activity, percentage”) ([3]; pH 4.0)?
Answer: 100%

Question: What about the “Cytosolic PLB activity, percentage” value ([3]; pH 7.0) of the same compound?
Answer: 163%

Question: And the “Membrane-associated PLB activity, percentage of the control” value ([4]; pH 4.0)?
Answer: 77%

Question: And the “Membrane-associated PLB activity, percentage of the control” value ([4]; pH 7.0)?
Answer: 200%

Question: With [Cl][Fe]([Cl])[Cl] [FeCl3] as the compound, how does the “Membrane-associated LPL activity, percentage of the control” value ([1]; pH 4.0) read?
Answer: 97%

Question: And the “Membrane-associated LPTA activity, percentage of the control” value ([1]; pH 4.0)?
Answer: 75%

Question: What about the “Membrane-associated LPL activity, percentage of the control” value ([1]; pH 7.0) of the same compound?
Answer: 61* %

Question: And the “Membrane-associated LPTA activity, percentage of the control” value ([1]; pH 7.0)?
Answer: 45* %

Question: And the “Cytosolic LPL activity, percentage” value ([2]; pH 4.0)?
Answer: 81%

Question: And the “Cytosolic LPTA activity, percentage” value ([2]; pH 4.0)?
Answer: 78%

Question: And the “Cytosolic LPL activity, percentage” value ([2]; pH 7.0)?
Answer: 22%

Question: What about the “Cytosolic LPTA activity, percentage” value ([2]; pH 7.0) of the same compound?
Answer: 21%

Question: And the “Cytosolic PLB activity, percentage” value ([3]; pH 4.0)?
Answer: 79%

Question: What about the “Cytosolic PLB activity, percentage” value ([3]; pH 7.0) of the same compound?
Answer: 61%

Question: What about the “Membrane-associated PLB activity, percentage of the control” value ([4]; pH 4.0) of the same compound?
Answer: 92%

Question: And the “Membrane-associated PLB activity, percentage of the control” value ([4]; pH 7.0)?
Answer: 2* %

Question: What does the source list for [Mg+2] [Magnesium]?
Answer: Membrane-associated LPL activity, percentage of the control ([1]; pH 4.0): 97%; Membrane-associated LPTA activity, percentage of the control ([1]; pH 4.0): 91%; Membrane-associated LPL activity, percentage of the control ([1]; pH 7.0): 145* %; Membrane-associated LPTA activity, percentage of the control ([1]; pH 7.0): 123* %; Cytosolic LPL activity, percentage of the control ([2]; pH 4.0): 73%; Cytosolic LPTA activity, percentage of the control ([2]; pH 4.0): 70%; Cytosolic LPL activity, percentage of the control ([2]; pH 7.0): 96%; Cytosolic LPTA activity, percentage of the control ([2]; pH 7.0): 85%; Cytosolic PLB activity, percentage of the control ([3]; pH 4.0): 100%; Cytosolic PLB activity, percentage of the control ([3]; pH 7.0): 477* %; Membrane-associated PLB activity, percentage of the control ([4]; pH 4.0): 79%; Membrane-associated PLB activity, percentage of the control ([4]; pH 7.0): 467* %

Question: For Triton X-100, which “Membrane-associated LPL activity, percentage of the control” value ([1]; pH 4.0) is on record?
Answer: 71%

Question: What about the “Membrane-associated LPTA activity, percentage of the control” value ([1]; pH 4.0) of the same compound?
Answer: 52%

Question: And the “Membrane-associated LPL activity, percentage of the control” value ([1]; pH 7.0)?
Answer: 4* %

Question: And the “Membrane-associated LPTA activity, percentage of the control” value ([1]; pH 7.0)?
Answer: 2* %

Question: And the “Cytosolic LPL activity, percentage” value ([2]; pH 4.0)?
Answer: 62%

Question: And the “Cytosolic LPTA activity, percentage” value ([2]; pH 4.0)?
Answer: 39%

Question: What about the “Cytosolic LPL activity, percentage” value ([2]; pH 7.0) of the same compound?
Answer: 0.9%

Question: And the “Cytosolic LPTA activity, percentage” value ([2]; pH 7.0)?
Answer: 0%

Question: And the “Cytosolic PLB activity, percentage” value ([3]; pH 4.0)?
Answer: 54* %

Question: And the “Cytosolic PLB activity, percentage” value ([3]; pH 7.0)?
Answer: 59%

Question: What about the “Membrane-associated PLB activity, percentage of the control” value ([4]; pH 4.0) of the same compound?
Answer: 19%

Question: What about the “Membrane-associated PLB activity, percentage of the control” value ([4]; pH 7.0) of the same compound?
Answer: 33* %
